Experimental data as given in the NIST ThermoML archive (doi:10.1016/j.jct.2012.04.026).

Columns and labels:
[1] = Liquid, Vibrating tube method
[2] = refractive index (Na D-line) (dimensionless); details: Liquid, Standard Abbe refractometry
[3] = wn = mass fraction of the nth substance listed; details: 313.15 K, Liquid, Vibrating tube method
[4] = refractive index (Na D-line) (dimensionless); wn = mass fraction of the nth substance listed; details: 313.15 K, Liquid, Standard Abbe refractometry

CCn1cc[n+](C)c1.O=S(=O)([N-]S(=O)(=O)C(F)(F)F)C(F)(F)F
Details	mass density, [1] [kg/m3]	refractive index, [2]
298.15 K, 101.33 kPa	1518.74	1.42307
313.15 K, 101 kPa	1502.2	1.41695
313.15 K, 101.3 kPa	1502.2	–
313.15 K, 101.33 kPa	–	1.41695

CCCCCC[n+]1ccn(C)c1.O=S(=O)([N-]S(=O)(=O)C(F)(F)F)C(F)(F)F
Details	mass density, [1] [kg/m3]	refractive index, [2]
298.15 K, 101.33 kPa	1371.99	1.43016
313.15 K, 101 kPa	1356.95	1.42542
313.15 K, 101.3 kPa	1356.95	–
313.15 K, 101.33 kPa	–	1.42542

CCCC[n+]1ccn(C)c1.O=S(=O)([N-]S(=O)(=O)C(F)(F)F)C(F)(F)F + CCO
Details	mass density, 101 kPa [kg/m3]	mass density, 101.3 kPa [kg/m3]	refractive index, 101 kPa	refractive index, 101.3 kPa	refractive index, 10234 kPa
[3], w2 = 0.008	1411.58	1411.58	–	–	–
[3], w2 = 0.015	1403.51	1403.51	–	–	–
[3], w2 = 0.032	1384.48	1384.48	–	–	–
[3], w2 = 0.084	1329.16	1329.16	–	–	–
[3], w2 = 0.156	1259.12	1259.12	–	–	–
[3], w2 = 0.202	1218.21	1218.21	–	–	–
[3], w2 = 0.385	1077.75	1077.75	–	–	–
[3], w2 = 0.48	1016.97	1016.97	–	–	–
[4], w2 = 0.008	–	–	1.42305	1.42305	1.42305
[4], w2 = 0.015	–	–	1.42222	1.42222	1.42222
[4], w2 = 0.032	–	–	1.41981	1.41981	1.41981
[4], w2 = 0.084	–	–	1.41301	1.41301	1.41301
[4], w2 = 0.156	–	–	1.40517	1.40517	1.40517
[4], w2 = 0.202	–	–	1.40056	1.40056	1.40056
[4], w2 = 0.385	–	–	1.38611	1.38611	1.38611
[4], w2 = 0.48	–	–	1.37983	1.37983	1.37983

CCO [ethanol]
Details	mass density, [1] [kg/m3]	refractive index, [2]
298.15 K, 101.33 kPa	785.2	–
313.15 K, 101 kPa	773.03	1.35353
313.15 K, 101.3 kPa	773.03	–
313.15 K, 101.33 kPa	–	1.35353

CCCCCCC [heptane]
298.15 K, 101.33 kPa
Details	mass density [kg/m3]	refractive index
[1]	679.57	–
[2]	–	1.38529

CCn1cc[n+](C)c1.O=S(=O)([N-]S(=O)(=O)C(F)(F)F)C(F)(F)F + CCO
Details	mass density, 101 kPa [kg/m3]	mass density, 101.3 kPa [kg/m3]	refractive index, 101 kPa	refractive index, 101.3 kPa	refractive index, 10234 kPa
[3], w2 = 0.014	1481.64	1481.64	–	–	–
[3], w2 = 0.034	1456.07	1456.07	–	–	–
[3], w2 = 0.072	1409.69	1409.69	–	–	–
[3], w2 = 0.126	1347.49	1347.49	–	–	–
[3], w2 = 0.278	1195.34	1195.34	–	–	–
[3], w2 = 0.324	1155.44	1155.44	–	–	–
[3], w2 = 0.635	943.07	943.07	–	–	–
[4], w2 = 0.014	–	–	1.41547	1.41547	1.41547
[4], w2 = 0.034	–	–	1.41333	1.41333	1.41333
[4], w2 = 0.072	–	–	1.40945	1.40945	1.40945
[4], w2 = 0.126	–	–	1.40425	1.40425	1.40425
[4], w2 = 0.278	–	–	1.3915	1.3915	1.3915
[4], w2 = 0.324	–	–	1.38812	1.38812	1.38812
[4], w2 = 0.635	–	–	1.36939	1.36939	1.36939

CCCCCC[n+]1ccn(C)c1.O=S(=O)([N-]S(=O)(=O)C(F)(F)F)C(F)(F)F + CCO
Details	mass density, 101 kPa [kg/m3]	mass density, 101.3 kPa [kg/m3]	refractive index, 101 kPa	refractive index, 101.3 kPa	refractive index, 10234 kPa
[3], w2 = 0.099	1270.96	1270.96	–	–	–
[3], w2 = 0.231	1161.07	1161.07	–	–	–
[3], w2 = 0.328	1092.32	1092.32	–	–	–
[3], w2 = 0.529	973.37	973.37	–	–	–
[3], w2 = 0.646	914.93	914.93	–	–	–
[3], w2 = 0.74	872.96	872.96	–	–	–
[3], w2 = 0.901	808.24	808.24	–	–	–
[4], w2 = 0.099	–	–	1.41392	1.41392	1.41392
[4], w2 = 0.231	–	–	1.40128	1.40128	1.40128
[4], w2 = 0.328	–	–	1.39325	1.39325	1.39325
[4], w2 = 0.529	–	–	1.37912	1.37912	1.37912
[4], w2 = 0.646	–	–	1.37165	1.37165	1.37165
[4], w2 = 0.74	–	–	1.36626	1.36626	1.36626
[4], w2 = 0.901	–	–	1.35782	1.35782	1.35782

CCCn1cc[n+](C)c1.O=S(=O)([N-]S(=O)(=O)C(F)(F)F)C(F)(F)F
Details	mass density, [1] [kg/m3]	refractive index, [2]
298.15 K, 101.33 kPa	1473.97	1.42525
313.15 K, 101 kPa	1458.33	1.42016
313.15 K, 101.3 kPa	1458.33	–
313.15 K, 101.33 kPa	–	1.42016

CCCn1cc[n+](C)c1.O=S(=O)([N-]S(=O)(=O)C(F)(F)F)C(F)(F)F + CCO
Details	mass density, 101 kPa [kg/m3]	mass density, 101.3 kPa [kg/m3]	refractive index, 101 kPa	refractive index, 101.3 kPa	refractive index, 10234 kPa
[3], w2 = 0.019	1433.96	1433.96	–	–	–
[3], w2 = 0.035	1414.83	1414.83	–	–	–
[3], w2 = 0.082	1362.5	1362.5	–	–	–
[3], w2 = 0.133	1309.15	1309.15	–	–	–
[3], w2 = 0.186	1256.95	1256.95	–	–	–
[3], w2 = 0.267	1183.97	1183.97	–	–	–
[3], w2 = 0.55	983.52	983.52	–	–	–
[4], w2 = 0.019	–	–	1.41801	1.41801	1.41801
[4], w2 = 0.035	–	–	1.4161	1.4161	1.4161
[4], w2 = 0.082	–	–	1.41105	1.41105	1.41105
[4], w2 = 0.133	–	–	1.40604	1.40604	1.40604
[4], w2 = 0.186	–	–	1.40101	1.40101	1.40101
[4], w2 = 0.267	–	–	1.39403	1.39403	1.39403
[4], w2 = 0.55	–	–	1.37499	1.37499	1.37499

CCCC[n+]1ccn(C)c1.O=S(=O)([N-]S(=O)(=O)C(F)(F)F)C(F)(F)F
Details	mass density, [1] [kg/m3]	refractive index, [2]
298.15 K, 101.33 kPa	1436.1	1.42672
313.15 K, 101 kPa	1420.7	1.42437
313.15 K, 101.3 kPa	1420.7	–
313.15 K, 101.33 kPa	–	1.42437
